Molecular target: T1, chymotrypsin-like activity of the 20S proteasome (Homo sapiens, UniProt P20618+P28074)
T1 construct: purified human placenta 20S proteasome; tissue Diabetes Forschungsinstitut, Düsseldorf, Germany; host or cells: human placenta
Assay: Inhibition of the chymotrypsin-like activity of the 20S proteasome (Suc-LLVY-AMC hydrolysis)
Type: biochemical
Conditions: purified human placenta 20S proteasome, Suc-LLVY-AMC substrate, read-out: IC50 [μM] (results of one or two experiments)
Excerpt: It is based on the hydrolysis of the fluorogenic peptide Suc-LLVY-AMC (Succinyl-leucine-leucine-vatine-tyrosine-7-amino-4-methyl-coumarin), which is cleaved exclusively at the Y-AMC bond by the 20S proteasome. Hydrolysis of this peptide is accompanied by an increase in fluorescence intensity (λex (excitation wavelength): 355 nm; μem (emission wavelength): 460 nm) due to release of the […] that accompanies diffusion apart of the hydrolysis product Suc-LLVY.
2 μl of a 1 mM solution of a test compound in DMSO (dimethylsulfoxide, 20 μM final concentration in the well) are preincubated for 60 min at room temperature in black 96-well microtiter plates together with a mixture of 1 μl purified human placenta 20S proteasome (Diabetes Forschungsinstitut, DÜsseldorf, Germany; about 100 ng proteasome, depending on the proteasome preparation) and 47 μl buffer-Ca (5 mM CaCl2, 20 mM Tris/HCl (Tris-(hydroxymethyl)-amino-methane hydrochloride) pH 8.0). 3 μl of a 2.67 mM solution of Suc-LLVY-AMC (Bachem, Switzerland) in DMSO (80 μM final concentration in the well) and 47 μl buffer-Ca are mixed and added. The resulting mixture is incubated for 3-24 h at 37° C. If desired, proteolysis of the substrate can be stopped by addition of 50 μl stop solution (100 mM monochloroacetic acid, 130 mM NaOH, 100 mM acetic acid, pH=4.3). The fluorescence is monitored with a FLUOROSKAN ASCENT™ microtiter plate reader.
For each measurement series two control experiments are carried out: • 1.) 0% value: 2 μl DMSO are used in the above described assay instead of 2 μl of a 1 mM solution of a test compound in DMSO and 48 μl buffer-Ca instead of a mixture of 47 μl buffer-Ca and 1 μl purified proteasome. • 2.) 100% value: in the above described assay 2 μl DMSO are used instead of 2 μl of a 1 mM solution of the test compound in DMSO. Calculation [formula]
The IC50 value is defined as that concentration of a compound at which the remaining activity is 50% compared to the […].

| SMILES | IC50 [µM] |
| --- | --- |
| COc1ccc(C[C@H](Nc2cccc(-c3ccccc3)c2)C(=O)N[C@@H](C)C(=O)N[C@@H](CC(C)C)B2O[C@@H]3C[C@@H]4C[C@@H](C4(C)C)[C@]3(C)O2)cc1 [Example 41, (S)-2-(Biphenyl-3-ylamino)-3-(4-methoxy-phenyl)-N-{(S)-1-[(R)-3-methyl-1-((1S,2S,6R,8S)-2,9,9-trimethyl-3,5-dioxa-4-bora-tricyclo[6.1.1.0^2,6]dec-4-yl)-butylcarbamoyl]-ethyl}-propionamide] | 0.0012 |
| COc1ccc(C[C@H](Nc2cccc(-c3ccccc3)c2)C(=O)N[C@@H](C)C(=O)N[C@@H](CC(C)C)B(O)O)cc1 [Example 42, (R)-1-{(S)-2-[(S)-2-(Biphenyl-3-ylamino)-3-(4-methoxy-phenyl)-propionylamino]-propionylamino}-3-methyl-butylboronic acid] | 0.0019 |
| COc1ccc(C[C@H](Nc2cccc(-c3ccccc3)c2)C(=O)N[C@@H](C)C(=O)N[C@@H](CC(C)C)B2O[C@@H]3C[C@@H]4C[C@@H](C4(C)C)[C@]3(C)O2)cc1OC [Example 43, (S)-2-(Biphenyl-3-ylamino)-3-(3,4-dimethoxy-phenyl)-N-{(S)-1-[(R)3-methyl-1-((1S,2S,6R,8S)-2,9,9-trimethyl-3,5-dioxa-4-bora-tricyclo[6.1.1.0^2,6]dec-4-yl)-butylcarbamoyl]-ethyl}-propionamide] | 0.0018 |
| COc1ccc(C[C@H](Nc2cccc(-c3ccccc3)c2)C(=O)N[C@@H](C)C(=O)N[C@@H](CC(C)C)B(O)O)cc1OC [Example 44, (R)-1-{(S)-2-[(S)-2-(Biphenyl-3-ylamino)-3-(3,4-dimethoxy-phenyl)-propionylamino]-propionylamino}-3-methyl-butylboronic acid] | 0.001 |
| COc1cc(C[C@H](Nc2cccc(C(C)C)c2)C(=O)N[C@@H](C)C(=O)N[C@@H](CC(C)C)B2O[C@@H]3C[C@@H]4C[C@@H](C4(C)C)[C@]3(C)O2)cc(OC)c1OC [Example 45, (S)-2-(3-Isopropyl-phenylamino)-N-{(S)-1-[(R)-3-methyl-1-((1S,2S,6R,8S)-2,9,9-trimethyl-3,5-dioxa-4-bora-tricyclo[6.1.1.0^2,6]dec-4-yl)-butylcarbamoyl]-ethyl}-3-(3,4,5-trimethoxy-phenyl)-propionamide] | 0.0013 |
| COc1ccc(C[C@H](NC(=O)CCc2ccccc2)C(=O)N[C@@H](C)C(=O)N[C@@H](CC(C)C)B2O[C@@H]3C[C@@H]4C[C@@H](C4(C)C)[C@]3(C)O2)c(OC)c1OC [Example 47, (S)-N-{(S)-1-[(R)-3-Methyl-1-((1S,2S,6R,8S)-2,9,9-trimethyl-3,5-dioxa-4-bora-tricyclo[6.1.1.0^2,6]dec-4-yl)-butylcarbamoyl]-ethyl}-2-(3-phenyl-propionylamino)-3-(2.3.4 trimethoxy-phenyl)-propionamide] | 0.0008 |
| COc1ccc(C[C@H](NC(=O)CCc2ccccc2)C(=O)N[C@@H](C)C(=O)N[C@@H](CC(C)C)B(O)O)c(OC)c1OC [Example 48, (R)-3-Methyl-1-{(S)-2-[(S)-2-(3-phenyl-propionylamino)-3-(2,3,4-trimethoxyphenyl)-propionylamino]-propionylamino}-butylboronic acid] | 0.0007 |
| COc1cc(C[C@H](Nc2cccc(-c3ccccc3)c2)C(=O)N[C@H](C(=O)N[C@@H](Cc2ccccc2)B(O)O)C(C)C)cc(OC)c1OC [Example 50, (R)-1-{(S)-2-[(S)-2-(Biphenyl-3-ylamino)-3-(3,4,5-trimethoxy-phenyl)-propionylamino]-3-methyl-butyrylamino}-2-phenyl-ethylboronic acid] | 0.0023 |
| COc1ccc(C[C@H](Nc2cccc(-c3ccccc3)c2)C(=O)N[C@H](C(=O)N[C@@H](Cc2ccccc2)B2O[C@@H]3C[C@@H]4C[C@@H](C4(C)C)[C@]3(C)O2)C(C)C)cc1 [Example 51, (S)-2-[(S)-2-(Biphenyl-3-ylamino)-3-(4-methoxy-phenyl)-propionylamino]-3-methyl-N-[(R)-2-phenyl-1-((1S,2S,6R,8S)-2,9,9-trimethyl-3,5-dioxa-4-bora-tricyclo[6.1.1.0^2,6]dec-4-yl)-ethyl]-butyramide] | 0.0043 |
